Results from patent publication US20100215588A1, “THERAPEUTIC DELIVERY OF INHIBITORY NUCLEIC ACID MOLECULES TO THE RESPIRATORY SYSTEM” (priority 2007, published 2010).

Key:
[1] = Clinical observations after inhalation doses of siRNA; format: in vivo, cynomolgus monkeys
Method: (§1) Male cynomolgus monkeys were administered single oronasal inhalation doses of a nebulised aerosol formulation of fluorescent-labelled REDD14Cy3.5 and/or I5NP siRNAs. Following dosing, the concentration of I5NP in plasma, the non-compartmental disposition kinetics of I5NP in plasma, the qualitative distribution of REDD14Cy3.5 in lungs and the semi-quantitative distribution of I5NP in lungs were determined.
Animals were treated with test aerosols using a pediatric anesthetic-type oronasal face mask fitted with inlet and outlet tubes and a breathing loop. During treatment, animals were placed in a restraint sling. The test atmospheres were generated using an Aeroneb (Aerogen) nebulizer, and assessed for output as described below. The level of exposure to the test article was achieved by varying the duration of exposure.
On Day 1 of the study, four of the available monkeys (101 to 104) were administered a target dose of 35 mg/kg of I5NP siRNA via an oronasal mask as a nebulized aerosol generated by the Aeroneb device. A 2.0 L/min dilution airflow was used. The total dose administered was calculated, based on the bodyweights and measured respiratory minute volumes of the animals, and on the achieved output of the Aeroneb device using the formulation concentration of 40 mg/mL. The administered dose was adjusted by changing the exposure times for the animals. […]

[2] = I5NP siRNA concentration and non-compartmental pharmacokinetics in plasma after single oronasal inhalation (hybridisation assay); format: in vivo, cynomolgus monkeys; conditions: for tmax: Treatment 1 (I5NP only), single oronasal inhalation; for AUC0-inf / AUC0-tlast / Cmax / Extrapolation (AUC0-inf − AUC0-tlast)/AUC0-inf × 100 / kel / t1/2 / tlast: Treatment 1, single oronasal inhalation
Method: as §1
Three separate dose treatments were administered to the animals as detailed below. The theoretical inhalation achieved doses of siRNA were calculated from the respiratory minute volume (measured during pre-treatment), the aerosol concentration of the test article (measured gravimetrically during pre-treatment calibration of the nebuliser), the treatment time, the total aerosol depostion fraction (assumed as 100%) and the animal bodyweights on the day before each dose administration.
On Day 1 of the study, four of the available monkeys ([…]) were administered a target dose of 35 mg/kg of I5NP siRNA via an oronasal mask as a nebulized aerosol generated by the Aeroneb device. A 2.0 L/min dilution airflow was used. The total dose administered was calculated, based on the bodyweights and measured respiratory minute volumes of the animals, and on the achieved output of the Aeroneb device using the formulation concentration of 40 mg/mL. The administered dose was adjusted by changing the exposure times for the animals. Animals received treatment sequentially, rather than in parallel, using the single calibrated test Aeroneb.
On Day 35 of the Study, the three remaining main study animals (103 to 105) were administered a target dose of 35 mg/kg of I5NP siRNA via an oronasal mask as a nebulized aerosol generated by the Aeroneb device. A 2.0 L/min dilution airflow was used. The total dose administered was calculated, based on the bodyweights and measured respiratory minute volumes of the animals, and on the achieved output of the Aeroneb device using the formulation concentration of 40 mg/mL. The administered dose was adjusted by changing the exposure times for the animals.
A blood sample (0.5 mL) was collected at pre-dose, and at 15 minutes, 30 minutes, 1, 2, 4, 6, 8 and 24 hours post-end of inhalation, from the left or right femoral vein of each animal that received the full dose (101, 102, 103 and 106). Blood was collected into tubes with K3EDTA as the anticoagulant and then placed on wet ice pending centrifugation.
A blood sample (0.5 mL) was collected at pre-dose and at 15 minutes post-end of inhalation from all animals (103, 104 and 105). A third blood sample was collected at 6 h (animal 103), 24 h (animal 104) or 72 h (animal 105) post-end of inhalation. Blood was collected, into K3EDTA tubes, from the left or right femoral vein of each animal (103 to 105), and placed on wet ice pending centrifugation.
Blood was kept on wet ice until it was centrifuged, at 4° C. and 2700 rpm for approximately 10 minutes, to separate plasma (within 1 hour of collection). Plasma samples were separated, transferred to appropriately labeled vials and placed on dry ice prior to storage at approximately −80° C.
Following Treatments 1 and 3, plasma samples were analyzed for I5NP siRNA concentration at PCS-MTL according to a validated hybridization method.
Non-compartmental disposition kinetics in plasma was performed on concentration data from individual animals following Treatment 1. The following parameters were estimated as applicable:
All pharmacokinetic parameters were estimated using WinNonlin version 3.2 computer software.

[3] = Treatment 1, 8 hours post-end of dose
[4] = plasma, Treatment 1, mean of 4 animals

I5NP: exemplary p53 inhibiting siRNA; sense GAGAAUAUUUCACCCUUCA, antisense UGAAGGGUGAAAUAUUCUC (chemistry not given here)
macroscopic findings in organs and tissues ([1]; necropsy after inhalation doses): of no toxicological significance
treatment-related clinical signs ([1]; single oronasal inhalation doses, target 35 mg/kg): No treatment-related clinical signs were observed
highest mean concentration in plasma ([2]; Treatment 1, 15 minutes post-end of dosing, mean of 4 animals): 21.0 ± 5.01 ng/mL
mean plasma level [2, 3]: 0.588 ± 0.561 ng/mL
plasma level as % of the Cmax value [2, 3]: approximately 3%
plasma concentration ([2]; Treatment 1, 24 h post-end of dosing, animal 101): 0.205 ng/mL
plasma concentration (below limit of quantitation) ([2]; Treatment 1, after 8 h or 24 h post-end of dosing (at 24 h all animals other than 101)): < 0.10 ng/mL
absorption into the systemic circulation from the inhaled dose ([2]; Treatment 1, oronasal inhalation): rapid
mean plasma concentration ([2]; Treatment 3, 15 minutes post-end of dose): 40.3 ± 14.5 ng/mL
plasma level ([2]; Treatment 3, 6 h post-end of dose, animal 103): 11.1 ng/mL
plasma level ([2]; Treatment 3, 24 h post-end of dose, animal 104): 0.192 ng/mL
plasma concentration (less than limit of quantitation) ([2]; Treatment 3, 72 hours post-end of dosing, animal 105): < 0.10 ng/mL
tmax ([2]; plasma, animal 101): 0.5 h
tmax ([2]; plasma, animal 102): 0.5 h
tmax ([2]; plasma, animal 103): 0.42 h
tmax ([2]; plasma, animal 106): 0.42 h
AUC0-inf ([2]; plasma, animal 101): 72.0 ng·h/mL
AUC0-tlast ([2]; plasma, animal 101): 70.3 ng·h/mL
Cmax ([2]; plasma, animal 101): 26.3 ng/mL
Extrapolation (AUC0-inf − AUC0-tlast)/AUC0-inf × 100 ([2]; plasma, animal 101): 2.36%
kel ([2]; plasma, animal 101): 0.121 h⁻¹
t1/2 ([2]; plasma, animal 101): 5.74 h
tlast ([2]; plasma, animal 101): 24.25 h
AUC0-inf ([2]; plasma, animal 102): 27.3 ng·h/mL
AUC0-tlast ([2]; plasma, animal 102): 27.1 ng·h/mL
Cmax ([2]; plasma, animal 102): 18.0 ng/mL
Extrapolation (AUC0-inf − AUC0-tlast)/AUC0-inf × 100 ([2]; plasma, animal 102): 0.824%
kel ([2]; plasma, animal 102): 0.467 h⁻¹
t1/2 ([2]; plasma, animal 102): 1.48 h
tlast ([2]; plasma, animal 102): 8.25 h
AUC0-inf ([2]; plasma, animal 103): 46.8 ng·h/mL
AUC0-tlast ([2]; plasma, animal 103): 42.4 ng·h/mL
Cmax ([2]; plasma, animal 103): 24.0 ng/mL
Extrapolation (AUC0-inf − AUC0-tlast)/AUC0-inf × 100 ([2]; plasma, animal 103): 9.40%
kel ([2]; plasma, animal 103): 0.252 h⁻¹
t1/2 ([2]; plasma, animal 103): 2.75 h
tlast ([2]; plasma, animal 103): 8.17 h
AUC0-inf ([2]; plasma, animal 106): 16.1 ng·h/mL
AUC0-tlast ([2]; plasma, animal 106): 15.8 ng·h/mL
Cmax ([2]; plasma, animal 106): 15.6 ng/mL
Extrapolation (AUC0-inf − AUC0-tlast)/AUC0-inf × 100 ([2]; plasma, animal 106): 2.26%
kel ([2]; plasma, animal 106): 0.277 h⁻¹
t1/2 ([2]; plasma, animal 106): 2.50 h
tlast ([2]; plasma, animal 106): 8.17 h
mean AUC0-inf [2, 4]: 40.6 ± 24.5 ng·h/mL
mean AUC0-tlast [2, 4]: 38.9 ± 23.6 ng·h/mL
mean kel [2, 4]: 0.279 ± 0.143 h⁻¹
mean t1/2 [2, 4]: 3.12 ± 1.83 h
